This is an account of results in patent US11759462B2, “Spirocyclic compounds as tryptophan hydroxylase inhibitors” (priority 2013, dated 2023).

This test addresses T1, Recombinant human TPH1 (MBP tagged) (Homo sapiens, UniProt P17752).
T1 construct: cloning full length human TPH1 cDNA in to a bacterial pMAL-c5E expression vector; made in house; host or cells: E. coli BL21 (DE3)
T1 sequence (P17752 1-444): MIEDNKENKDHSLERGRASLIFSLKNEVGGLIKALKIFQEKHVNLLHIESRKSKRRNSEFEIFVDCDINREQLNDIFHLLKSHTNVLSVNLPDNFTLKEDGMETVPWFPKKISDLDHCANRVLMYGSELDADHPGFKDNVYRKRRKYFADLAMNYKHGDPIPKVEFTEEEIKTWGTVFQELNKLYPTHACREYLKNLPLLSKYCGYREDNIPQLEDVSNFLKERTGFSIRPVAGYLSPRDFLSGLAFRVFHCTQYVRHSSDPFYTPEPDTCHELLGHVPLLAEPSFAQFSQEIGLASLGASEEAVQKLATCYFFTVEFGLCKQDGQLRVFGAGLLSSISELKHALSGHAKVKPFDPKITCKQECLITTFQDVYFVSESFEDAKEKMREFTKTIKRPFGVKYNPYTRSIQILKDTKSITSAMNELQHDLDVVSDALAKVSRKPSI
Put plainly: TPH1 in vitro inhibition assay (kinetic fluorescence). The settings on record: read-out: TPH1 Range (TPH1 inhibition IC50). The format is biochemical. The method, boiled down: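 Final mix: 15 nM MBP-TPH1, 30 μM Trp, 36 μM 6-methyltetrahydropterin, 25 μM ferrous ammonium sulfate, 50 mM MES pH 7.1, 1% DMSO, room temperature.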
Consider `Nc1nc(NCc2ccc3ccccc3c2)nc(N2CCC3(CC2)CNC(C(=O)O)C3)n1` (stereo not drawn) [Example 39a, 8-(4-Amino-6-((naphthalen-2-ylmethyl)amino)-1,3,5-triazin-2-yl)-2,8-diazaspiro[4.5]decane-3-carboxylic acid], for which the IC50 (as a rule, the midpoint of a concentration-inhibition curve) lay in the range of 0.3 to 3 µM.

`Nc1nc(NCc2ccc(-c3ccccc3)cc2)nc(N2CCC3(CC2)CNC(C(=O)O)C3)n1` (stereo not drawn) [Example 39b, 8-(4-(([1,1′-biphenyl]-4-ylmethyl)amino)-6-amino-1,3,5-triazin-2-yl)-2,8-diazaspiro[4.5]decane-3-carboxylic acid]: the IC50 lay in the range of 3 to 10 µM.

With `Nc1nc(NCc2ccccc2N2CCCCC2)nc(N2CCC3(CC2)CNC(C(=O)O)C3)n1` (stereo not drawn) [Example 39c, 8-(4-amino-6-((2-(piperidin-1-yl)benzyl)amino)-1,3,5-triazin-2-yl)-2,8-diazaspiro[4.5]decane-3-carboxylic acid], the concentration for half-maximal inhibition (IC50) fell in the range of 3 to 10 µM.

Regarding `Nc1nc(NCc2cccc(-c3ccccc3)c2)nc(N2CCC3(CC2)CNC(C(=O)O)C3)n1` (stereo not drawn) [Example 39d, 8-(4-(([1,1′-biphenyl]-3-ylmethyl)amino)-6-amino-1,3,5-triazin-2-yl)-2,8-diazaspiro[4.5]decane-3-carboxylic acid], the half-maximal inhibitory concentration (IC50) was in the range of 3 to 10 µM.

As to `C[C@@H](Nc1nc(N)nc(N2CCC3(CC2)CNC(C(=O)O)C3)n1)c1ccc2ccccc2c1` (stereo partly drawn) [Example 39e, 8-(4-amino-6-(((R)-1-(naphthalen-2-yl)ethyl)amino)-1,3,5-triazin-2-yl)-2,8-diazaspiro[4.5]decane-3-carboxylic acid], the IC50 is 0.3 to 3 µM.

As to `Cc1ccn(-c2cc(Cl)ccc2[C@@H](Oc2nc(N)nc(N3CCC4(CC3)CNC(C(=O)O)C4)n2)C(F)(F)F)n1` (stereo partly drawn) [Example 40, 8-(4-amino-6-((R)-1-(4-chloro-2-(3-methyl-H-pyrazol-1-yl)phenyl)-2,2,2-trifluoroethoxy)-1,3,5-triazin-2-yl)-2,8-diazaspiro[4.5]decane-3-carboxylic acid], the 50% inhibitory concentration (IC50) was 0.3 to 3 µM.

`Nc1nc(NCc2ccccc2N2CCCCC2)cc(N2CCC3(CC2)CN[C@H](C(=O)O)C3)n1` [Example 41a, (S)-8-(2-Amino-6-((2-(piperidin-1-yl)benzyl)amino)pyrimidin-4-yl)-2,8-diazaspiro[4.5]decane-3-carboxylic acid]: the IC50 fell in the range of 0.3 to 3 µM.

Regarding `Nc1nc(NCc2c(Oc3ccccc3)cccc2N2CCCCC2)cc(N2CCC3(CC2)CN[C@H](C(=O)O)C3)n1` [Example 41b, (S)-8-(2-amino-6-((2-phenoxy-6-(piperidin-1-yl)benzyl)amino)pyrimidin-4-yl)-2,8-diazaspiro[4.5]decane-3-carboxylic acid], the IC50 lay in the range of 0.3 to 3 µM.

Take `Nc1nc(NCC23CC4CC(CC(C4)C2)C3)cc(N2CCC3(CC2)CN[C@H](C(=O)O)C3)n1` [Example 41c, (3S)-8-(6-(((3S,5S)-adamantan-1-ylmethyl)amino)-2-aminopyrimidin-4-yl)-2,8-diazaspiro[4.5]decane-3-carboxylic acid]: the IC50 fell in the range of 3 to 10 µM.

Regarding `CC(Nc1cc(N2CCC3(CC2)CN[C@H](C(=O)O)C3)nc(N)n1)C12CC3CC(CC(C3)C1)C2` (stereo partly drawn) [Example 41d, (3S)-8-(6-((1-((1R,3S,5S)-adamantan-1-yl)ethyl)amino)-2-aminopyrimidin-4-yl)-2,8-diazaspiro[4.5]decane-3-carboxylic acid], the IC50 was in the range of 3 to 10 µM.

Consider `Nc1nc(O[C@H](c2ccccc2-c2cccc(Cl)c2)C(F)(F)F)cc(N2CCC3(CC2)CN[C@H](C(=O)O)C3)n1` [Example 42a, (S)-8-(2-amino-6-((R)-1-(3′-chloro-[1,1′-biphenyl]-2-yl)-2,2,2-trifluoroethoxy)pyrimidin-4-yl)-2,8-diazaspiro[4.5]decane-3-carboxylic acid], for which the IC50 was less than 0.05 µM.

Take `Nc1nc(O[C@H](c2ccccc2-c2cccc(F)c2)C(F)(F)F)cc(N2CCC3(CC2)CN[C@H](C(=O)O)C3)n1` [Example 42b, (S)-8-(2-amino-6-((R)-2,2,2-trifluoro-1-(3′-fluoro-[1,1′-biphenyl]-2-yl)ethoxy)pyrimidin-4-yl)-2,8-diazaspiro[4.5]decane-3-carboxylic acid]: the IC50 was 0.05 to 0.3 µM.
